Test results from patent publication US12527886B2, “Radiopharmaceuticals and composition for thrombus imaging” (THE ASAN FOUNDATION, priority 2020, dated 2026).

Test: Stability of Tc-99m labeled compound, labeling purity by HPLC
Assay type: physicochemical
Protocol: 2 mL of Tc-99m was added dropwise to a lyophilized vial including 0.1 mg of GP-104, 15 μg of SnCl2, and 10 μg of cysteine, the vial was allowed to stand at room temperature for 10 minutes, and the reaction was terminated by adjusting pH to 7 using a NaOH solution. Labeling purity was confirmed to be 93.21% by HPLC (analysis conditions: Luna C18 250×4.6 mm, phosphate buffer:acetonitrile (100:0, 0 to 5 minutes; 80:20, 5 to 10 minutes; 80:20, 17 minutes; 100:0, 17.1 minutes). 100:0. 20 min), 1.0 mL/min, UV=280 nm).
In order to confirm the effect of cysteine addition after the reaction, the following experiment was performed: 0.1 mg of GP-104 was dissolved in water for injection, the pH was adjusted to about 3.5 when 10 μL of SnCl2 (1.5 mg/mL) and 2 mL of Tc-99m were added thereto, and the resulting mixture was allowed to stand at room temperature for 10 minutes. The reaction was terminated by adjusting the pH to 7 using a NaOH solution and 10 μL of cysteine (1.0 mg/mL). Labeling purity was confirmed to be 91.4% using HPLC in the same manner as in Example 2-7.
After 0.1 mg of GP-104 was dissolved in water for injection, pH was adjusted to about 3.5 and the resulting solution was allowed to stand at room temperature for 10 minutes when 10 μL of SnCl2 (1.5 mg/mL), 10 μL of cysteine (1.0 mg/mL) and 2 mL of Tc-99m were added thereto, and the reaction was terminated by adjusting the pH to 7 using a NaOH solution. Labeling purity was confirmed to be 94.84% using HPLC in the same manner as in Example 2-7.
HCl and NaOH was additionally added dropwise to the solution of Example 2-8 to perform a stability evaluation by adjusting the final pH of the solution to acidic (pH 5.5) and basic (pH 8.5) conditions, and labeling purity was confirmed using HPLC in the same manner as in Example 2-7.
HCl and NaOH was additionally added dropwise to the solution of Example 2-9 to perform a stability evaluation by adjusting the final pH of the solution to acidic (pH 5.5) and basic (pH 8.5) conditions, and labeling purity was confirmed using HPLC in the same manner as in Example 2-7.
HCl and NaOH was additionally added dropwise to the solution of Example 2-10 to perform a stability evaluation by adjusting the final pH of the solution to acidic (pH 5.5) and basic (pH 8.5) conditions, and labeling purity was confirmed using HPLC in the same manner as in Example 2-7.
0.1 mg of GP-105 was dissolved in water for injection, the pH was adjusted to about 3.5 when 10 μL of SnCl2 (1.5 mg/mL) and 2 mL of Tc-99m were added thereto, and the resulting mixture was allowed to stand at room temperature for 10 minutes. The reaction was terminated by adjusting the pH to 7 using a NaOH solution and 10 μL of cysteine (1.0 mg/mL). Labeling purity was confirmed to be 98.1% using HPLC in the same manner as in Example 2-7.
HCl and NaOH was additionally added dropwise to the solution of Example 2-12 to perform a stability evaluation by adjusting the final pH of the solution to acidic (pH 5.5) and basic (pH 8.5) conditions, and labeling purity was confirmed using HPLC in the same manner as in Example 2-7.
HCl and NaOH was additionally added dropwise to the solution of Example 2-13 to perform a stability evaluation by adjusting the final pH of the solution to acidic (pH 5.5) and basic (pH 8.5) conditions, and labeling purity was confirmed using HPLC in the same manner as in Example 2-7.
HCl and NaOH was additionally added dropwise to the solution of Example 2-14 to perform a stability evaluation by adjusting the final pH of the solution to acidic (pH 5.5) and basic (pH 8.5) conditions, and labeling purity was confirmed using HPLC in the same manner as in Example 2-7.

O=C(O)C[C@H](NC(=O)[C@@H]1CCCN(C(=O)CCC2CCNCC2)C1)c1cncc(OCCNC(=O)CN2CC(=O)[O][99Tc-]3([O]C(=O)C2)[O]C(=O)CN(CC(=O)NCCOc2cncc([C@H](CC(=O)O)NC(=O)[C@@H]4CCCN(C(=O)CCC5CCNCC5)C4)c2)CC(=O)[O]3)c1 [[Tc-99m]GP-105]
radiochemical purity (HPLC) (Ex 4-3, addition of cysteine after reaction, NaOH mixed, 0 hour): 98.06% | radiochemical purity (HPLC) (Ex 4-3, addition of cysteine after reaction, NaOH mixed, 1 hour): 95.17% | radiochemical purity (HPLC) (Ex 4-3, addition of cysteine after reaction, NaOH mixed, 2 hours): 94.14% | radiochemical purity (HPLC) (Ex 4-3, addition of cysteine after reaction, NaOH mixed, 3 hours): 91.91% | radiochemical purity (HPLC) (Ex 4-3, addition of cysteine after reaction, NaOH mixed, 4 hours): 89.00% | radiochemical purity (HPLC) (Ex 4-3, addition of cysteine after reaction, NaOH separately, 0 hour): 99.39% | radiochemical purity (HPLC) (Ex 4-3, addition of cysteine after reaction, NaOH separately, 1 hour): 99.04% | radiochemical purity (HPLC) (Ex 4-3, addition of cysteine after reaction, NaOH separately, 2 hours): 97.02% | radiochemical purity (HPLC) (Ex 4-3, addition of cysteine after reaction, NaOH separately, 3 hours): 91.14% | radiochemical purity (HPLC) (Ex 4-3, addition of cysteine after reaction, NaOH separately, 4 hours): 66.87% | radiochemical purity (HPLC) (solution of Example 2-12 (165 nmol cysteine), pH 5.5, 0 hr): 100% | radiochemical purity (HPLC) (solution of Example 2-12 (165 nmol cysteine), pH 5.5, 2 hr): 85.49% | radiochemical purity (HPLC) (solution of Example 2-12 (165 nmol cysteine), pH 5.5, 4 hr): 82.11% | radiochemical purity (HPLC) (solution of Example 2-12 (165 nmol cysteine), pH 7, 0 hr): 100% | radiochemical purity (HPLC) (solution of Example 2-12 (165 nmol cysteine), pH 7, 2 hr): 94.88% | radiochemical purity (HPLC) (solution of Example 2-12 (165 nmol cysteine), pH 7, 4 hr): 85.55% | radiochemical purity (HPLC) (solution of Example 2-12 (165 nmol cysteine), pH 8.5, 0 hr): 100% | radiochemical purity (HPLC) (solution of Example 2-12 (165 nmol cysteine), pH 8.5, 2 hr): 50.64% | radiochemical purity (HPLC) (solution of Example 2-12 (165 nmol cysteine), pH 8.5, 4 hr): 23.98% | radiochemical purity (HPLC) (solution of Example 2-13 (82.5 nmol cysteine + 82.5 nmol VB1), pH 5.5, 0 hr): 100% | radiochemical purity (HPLC) (solution of Example 2-13 (82.5 nmol cysteine + 82.5 nmol VB1), pH 5.5, 2 hr): 100% | radiochemical purity (HPLC) (solution of Example 2-13 (82.5 nmol cysteine + 82.5 nmol VB1), pH 5.5, 4 hr): 98.63% | radiochemical purity (HPLC) (solution of Example 2-13 (82.5 nmol cysteine + 82.5 nmol VB1), pH 7, 0 hr): 100% | radiochemical purity (HPLC) (solution of Example 2-13 (82.5 nmol cysteine + 82.5 nmol VB1), pH 7, 2 hr): 100% | radiochemical purity (HPLC) (solution of Example 2-13 (82.5 nmol cysteine + 82.5 nmol VB1), pH 7, 4 hr): 94.88% | radiochemical purity (HPLC) (solution of Example 2-13 (82.5 nmol cysteine + 82.5 nmol VB1), pH 8.5, 0 hr): 100% | radiochemical purity (HPLC) (solution of Example 2-13 (82.5 nmol cysteine + 82.5 nmol VB1), pH 8.5, 2 hr): 94.13% | radiochemical purity (HPLC) (solution of Example 2-13 (82.5 nmol cysteine + 82.5 nmol VB1), pH 8.5, 4 hr): 90.17%
